Reference: patent publication US20260123631A1, “NATURAL PORPHIN SALT AND USE THEREOF AS PLANT GROWTH REGULATOR AND PLANT IMMUNITY INDUCER” (NANJING BOSTEC BIOLOGICAL ENGINEERING CO., LTD, priority 2022, published 2026)
Like-named read-outs stand apart in the source and are kept apart here.

Assays:
[1] = target: chlorophyllase; assay: In vitro chlorophyllase-inhibiting activity test; assay type: biochemical, mung bean
Description: A chlorophyllase inhibition rate of a salt sample solution at each concentration was determined, and an IC50 value for a chlorophyllase inhibition activity of a salt sample was calculated.

[2] = Stability of sample solutions in the dark/under light; assay type: physicochemical
Description: Determination: An appropriate amount of a salt sample was taken, dissolved with water, and diluted to prepare a test solution with a concentration of about 10 ppm. An acidic reference substance (extremely-insoluble in water) was prepared with a 30% to 50% ethanol aqueous solution into a test solution with a concentration of about 10 ppm.
Each test solution was scanned by an ultraviolet spectrophotometer (at 0 h) for absorbance in a range of 200 nm to 800 nm immediately after being prepared. Then a test solution of each sample was divided into two parts. One part was placed at room temperature of 25° C. in the dark, and the other part was placed under light with a light intensity of 30,000 lux. At 1 h, 2 h, and 3 h, a solution sample was collected and scanned for absorbance respectively.
An absorbance value of a maximum absorption peak at 0 h (starting) of each test solution was set as a relative content of 100%, and a ratio of an absorbance value at each time point to the absorbance value at 0 h was calculated to determine a relative content, %.

[3] = system: wheat; assay: Germination of wheat and growth of seedlings; assay type: in vivo, wheat (Huaimai 35); conditions: for Root length / Root number / Root weight / Seedling height / Seedling weight: wheat seedlings
Description: Method: 3 replicates were set for each treatment. 50 full seeds with a consistent size were selected each time for each sample, disinfected with sodium hypochlorite for 5 min, rinsed with clear water, and placed in a plastic box filled with 100 g of a sand. 25 mL of a prepared sample solution was poured into the plastic box, and the seeds were arranged regularly. The plastic box was covered with a lid, and then incubated in a 25° C. incubator. The germination was determined when a length of a sprout of a wheat seed exceeded a half of a diameter (long axis) of the wheat seed (determination criterion). According to the growth of wheat, the germ exposure of seeds and the number of germinated seeds were recorded every day. On day 6, 10 wheat seedlings were randomly selected, and a root length, a plant height, and a root number were determined. On day 7, a root weight and an aboveground part weight were determined. All index data was produced based on 3 replicates.

[4] = Water solubility of the prepared salts; assay type: physicochemical
[5] = Dilution and pH determination for sample solutions; assay type: physicochemical
Description: Method: 0.2500 g of a sample was accurately weighed and added to a 25 mL volumetric flask, dissolved with purified water, and diluted to a specified scale to prepare a 1.00% (10,000.0 ppm) initial solution. The initial solution was diluted with purified water in different ratios to prepare a series of solutions with a concentration of 1,000.0 ppm to 0.1 ppm. A pH value of each sample was determined three times.

[6] = substrate chlorophyll 120 ppm, sample 0.3 ppm to 30.0 ppm
[7] = under light 30,000 lux, 1 h, salts in water, acidic reference in 30% to 50% ethanol
[8] = under light 30,000 lux, 2 h, salts in water, acidic reference in 30% to 50% ethanol
[9] = under light 30,000 lux, 3 h, salts in water, acidic reference in 30% to 50% ethanol

Row | Compound | IC50 for chlorophyllase inhibition activity [1, 6] [ppm] | Relative content [2, 7] [%] | Relative content [2, 8] [%] | Relative content [2, 9] [%] | solubility in water [4] | other results
1 | ammonium iron chlorophyllin [Example 31] | 5.43 | – | – | – | – | –
2 | potassium protoporphyrin [Example 1] | – | 65.90 | 56.97 | 58.17 | easily soluble | Germination rate of wheat ([3]; 0.0025 ppm): 94.7%; Root length ([3]; 0.0025 ppm): 9.63 cm; Root number ([3]; 0.0025 ppm): 5.4; Root weight ([3]; 0.0025 ppm): 0.1230 g; Seedling height ([3]; 0.0025 ppm): 8.95 cm; Seedling weight ([3]; 0.0025 ppm): 0.241 g; Germination rate of wheat ([3]; 0.0250 ppm): 95.3%; Root length ([3]; 0.0250 ppm): 10.17 cm; Root number ([3]; 0.0250 ppm): 5.2; Root weight ([3]; 0.0250 ppm): 0.0976 g; Seedling height ([3]; 0.0250 ppm): 9.48 cm; Seedling weight ([3]; 0.0250 ppm): 0.242 g; Germination rate of wheat ([3]; 0.2500 ppm): 90.7%; Root length ([3]; 0.2500 ppm): 8.68 cm; Root number ([3]; 0.2500 ppm): 5.3; Root weight ([3]; 0.2500 ppm): 0.1134 g; Seedling height ([3]; 0.2500 ppm): 7.64 cm; Seedling weight ([3]; 0.2500 ppm): 0.228 g
3 | ammonium copper chlorophyllin [Example 44] | – | – | – | – | – | IC50 for chlorophyllase inhibition activity [1]: 13.68 ppm
4 | zinc zinc chlorophyllin [Example 41] | 18.77 | 71.62 | 66.31 | 63.93 | slightly soluble | –
5 | potassium iron chlorophyllin [Example 30] | 5.09 | 72.04 | 65.63 | 57.54 | easily soluble | –
6 | copper iron chlorophyllin [Example 34] | 5.04 | 72.13 | 68.58 | 65.03 | slightly soluble | –
7 | C=CC1=C(C)c2cc3[n-]c(cc4nc(cc5[n-]c(cc1n2)c(C)c5C=C)C(C)=C4CCC(=O)[O-])c(CCC(=O)[O-])c3C.[Cl-].[Fe+3].[Mg+2] [Example 13, magnesium chlorhematin] | – | 82.11 | 81.84 | 75.61 | soluble | Relative content ([2]; in the dark, 25° C., 0 h): 100.00%; Relative content ([2]; in the dark, 25° C., 1 h): 100.10%; Relative content ([2]; in the dark, 25° C., 2 h): 99.76%; Relative content ([2]; in the dark, 25° C., 3 h): 99.38%; Relative content ([2]; under light 30,000 lux, 0 h): 100.00%; pH ([5]; 0.1 ppm in purified water): (6.92); pH ([5]; 1.0 ppm in purified water): (7.27); pH ([5]; 10.0 ppm in purified water): (7.63); pH ([5]; 20.0 ppm in purified water): (7.77); pH ([5]; 30.0 ppm in purified water): (7.87); pH ([5]; 100.0 ppm in purified water): (8.01)
8 | copper iron chlorin [Example 29] | 4.92 | 78.52 | 71.02 | 64.29 | slightly soluble | –
9 | ammonium zinc chlorophyllin [Example 35] | 18.06 | – | – | – | – | –
10 | zinc iron chlorin [Example 28] | 5.66 | 71.19 | 65.23 | 61.37 | slightly soluble | –
11 | copper zinc chlorophyllin [Example 42] | 17.76 | 88.43 | 93.28 | 70.90 | slightly soluble | –
12 | calcium iron chlorin [Example 24] | 5.11 | – | – | – | – | –
13 | ammonium iron chlorin [Example 22] | 5.58 | – | – | – | – | –
14 | calcium zinc chlorophyllin [Example 37] | – | – | – | – | – | IC50 for chlorophyllase inhibition activity [1]: 17.78 ppm
15 | manganese zinc chlorophyllin [Example 40] | – | – | – | – | – | IC50 for chlorophyllase inhibition activity [1]: 18.10 ppm
16 | C=CC1=C(C)c2cc3[n-]c(cc4nc(cc5[n-]c(cc1n2)c(C)c5C=C)C(C)=C4CCC(=O)[O-])c(CCC(=O)[O-])c3C.[Cl-].[Fe+3].[Na+].[Na+] [Example 11, sodium chlorhematin] | – | 74.11 | 69.68 | 67.73 | easily soluble | pH ([5]; 20 ppm solution in water (Comparative Test 2)): 7.5
17 | calcium copper chlorophyllin [Example 46] | 13.49 | – | – | – | – | –
18 | magnesium iron chlorin [Example 23] | 5.06 | 74.25 | 66.34 | 62.11 | – | –
19 | sodium copper chlorophyllin [Copper chlorophyllin Na^+] | 13.72 | 72.50 | 67.03 | 66.30 | – | –
20 | magnesium zinc chlorophyllin [Example 36] | 16.37 | 53.53 | 45.74 | 39.42 | – | –

More lines, main results first:

Row | IC50 for chlorophyllase inhibition activity [1, 6] [ppm] | Relative content [2, 7] [%] | Relative content [2, 8] [%] | Relative content [2, 9] [%] | solubility in water [4] | Compound | other results
21 | 6.18 | 85.27 | 82.15 | 80.17 | slightly soluble | copper chlorin [Example 61] | –
22 | 11.87 | 74.46 | 68.03 | 66.86 | – | magnesium copper chlorophyllin [Example 45] | –
23 | 6.43 | – | – | – | – | calcium chlorin [Example 56] | –
24 | 6.22 | 43.47 | 35.26 | 30.41 | – | magnesium chlorin [Example 55] | –
25 | 13.70 | 98.85 | 97.47 | 96.78 | slightly soluble | copper copper chlorophyllin [Example 51] | –
26 | 14.19 | 69.84 | 65.37 | 60.04 | slightly soluble | zinc copper chlorophyllin [Example 50] | –
27 | 5.38 | 81.00 | 74.21 | 63.35 | – | calcium iron chlorophyllin [Iron chlorophyllin Ca^2+] | –
28 | 15.55 | 52.48 | 46.08 | 41.51 | – | potassium zinc chlorophyllin [Zinc chlorophyllin K^+] | –
29 | 5.16 | 69.34 | 63.04 | 60.46 | – | zinc iron chlorophyllin [Iron chlorophyllin Zn^2+] | –
30 | 15.91 | 51.90 | 42.51 | 37.81 | – | sodium zinc chlorophyllin [Zinc chlorophyllin Na^+] | –
31 | 5.55 | 70.13 | 61.00 | 58.68 | – | manganese iron chlorophyllin [Iron chlorophyllin Mn^2+] | –
32 | 6.05 | – | – | – | – | ammonium chlorin [Example 54] | –
